Data reported in PMC6718736, “Validation of in vitro methods for human cytochrome P450 enzyme induction: Outcome of a multi-laboratory study” (Toxicology in Vitro, 2019).
Like-named read-outs stand apart in the source and are kept apart here.

Experiments:
CYP1A2 [1] = assay: CYP1A2 enzyme induction assay in cryopreserved primary human hepatocytes (PHH); assay type: in vitro ADME; settings: for Assigned classification CYP1A2: PHH;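 on Assigned classification CYP1A2: code 1 means positive inducer and 0 means non-inducer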
CYP2B6 = CYP2B6 enzyme induction assay in cryopreserved primary human hepatocytes (PHH); assay type: in vitro ADME; settings: for Assigned classification CYP2B6: PHH;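 on Assigned classification CYP2B6: code 1 means positive inducer and 0 means non-inducer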
[2] = Solubility by visual inspection (DMSO stock solution and assay medium); assay type: physicochemical; settings: assay medium
Description: The SOPs relied on visual inspection for solubility observation. […] The absence of precipitation in the medium was checked pre- and post-incubation (24 hours) by centrifugation of the sample and observation of any precipitation (pellet residue).

[3] = Solubility by nephelometry (EURL ECVAM); assay type: physicochemical; settings: ECVAM nephelometry, ^2 = solubility limit
Outline: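 Turbidity from insolubility detected by laser nephelometry (Tyndall light scatter). Formazin standards at 1, 5, 10 and 20 NTU used to calculate relative turbidity; 1 NTU equals solvent/medium blank background, with sensitivity to 5 NTU.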

CYP3A4 [4] = tested on: CYP3A4
CYP1A2 [5] = settings: cited from earlier work
[6] = cited from earlier work
CYP = CYP isoforms induced; ref Abadie et al. (2009), Richert et al. (2010), Preissner et al. (2010), Hoffmann et al. (2014); cited from earlier work
CYP3A4 [7] = settings: in vivo; cited from earlier work

SMILES: CO[C@H]1/C=C/O[C@@]2(C)Oc3c(C)c(O)c4c(c3C2=O)C2=NC3(CCN(CC(C)C)CC3)NC2=C(NC(=O)/C(C)=C\C=C\[C@H](C)[C@H](O)[C@@H](C)[C@@H](O)[C@@H](C)[C@H](OC(C)=O)[C@@H]1C)C4=O [Rifabutin]
- Prediction in vivo inducer (CYP1A2 [1]; CYP1A2, PHH, Cmax/F2 >0.5 criterion): No
- F2 (CYP1A2 [1]; CYP1A2, PHH, in vitro concentration producing 2-fold induction): 2.2 to 6.7 µM
- Induction in vitro (CYP1A2 [1]; CYP1A2, PHH, positive in one donor in each of the three laboratories): Yes
- Assigned classification CYP1A2 (CYP1A2 [1]; Lab 1, batch 0 6 A): 1
- Assigned classification CYP1A2 (CYP1A2 [1]; Lab 1, batch 4 0 8): 1
- Assigned classification CYP1A2 (CYP1A2 [1]; Lab 1, batch 8 0 8): 0
- Assigned classification CYP1A2 (CYP1A2 [1]; Lab 2, batch 0 6 A): 0
- Assigned classification CYP1A2 (CYP1A2 [1]; Lab 2, batch 4 0 8): 0
- Assigned classification CYP1A2 (CYP1A2 [1]; Lab 2, batch 8 0 8): 1
- Assigned classification CYP1A2 (CYP1A2 [1]; Lab 3, batch 0 6 A): 1
- Assigned classification CYP1A2 (CYP1A2 [1]; Lab 3, batch 4 0 8): 0
- Assigned classification CYP1A2 (CYP1A2 [1]; Lab 3, batch 8 0 8): 0
- F2 (CYP2B6; CYP2B6, PHH): 0.29 to 0.87 µM
- Induction in vitro (CYP2B6; CYP2B6, PHH): induced CYP2B6 and Yes
- Prediction in vivo inducer (CYP2B6; CYP2B6, PHH): Yes
- Assigned classification CYP2B6 (CYP2B6; Lab 1, batch 0 6 A): 1
- Assigned classification CYP2B6 (CYP2B6; Lab 1, batch 4 0 8): 0
- Assigned classification CYP2B6 (CYP2B6; Lab 1, batch 8 0 8): 1
- Assigned classification CYP2B6 (CYP2B6; Lab 2, batch 0 6 A): 0
- Assigned classification CYP2B6 (CYP2B6; Lab 2, batch 4 0 8): 0
- Assigned classification CYP2B6 (CYP2B6; Lab 2, batch 8 0 8): 1
- Assigned classification CYP2B6 (CYP2B6; Lab 3, batch 0 6 A): 1
- Assigned classification CYP2B6 (CYP2B6; Lab 3, batch 4 0 8): 1
- Assigned classification CYP2B6 (CYP2B6; Lab 3, batch 8 0 8): 1
- HepaRG medium stability ([2]; Lab 1, visual observation): 40 µg/mL
- HepaRG medium stability ([2]; Lab 2, visual observation): 20 µg/mL
- HepaRG medium stability ([2]; Lab 3, visual observation): 40 µg/mL
- PHH medium stability ([2]; Lab 4, visual observation): 40 µg/mL
- PHH medium stability ([2]; Lab 5, visual observation): 40 µg/mL
- PHH medium stability ([2]; Lab 6, visual observation): 40 µg/mL
- HepaRG medium stability ([3]; HepaRG medium): 40 µg/mL
- PHH medium stability ([3]; PHH medium): 40 µg/mL
- Induction in vitro (CYP3A4 [4]): Yes
- Prediction in vivo inducer (CYP3A4 [4]): Yes
- Summary predictive capacity, CYP3A4 induction (Y/N) (CYP3A4 [4]; hepatocytes): Y
- Cmax/F2 (CYP3A4 [4]; human): 4.4
- F2 (CYP3A4 [4]; human): 0.1 µM
- Induction in vivo (CYP1A2 [5]; CYP1A2, human, ref Table 1): No
- CYP induction in vivo literature reference: CYP1A2 (CYP1A2 [5]; human in vivo, CYP named without remark = induced, ref references in the cell, Washington University database, Hoffmann et al. (2014), Pelkonen et al. (2008), Hukkanen et al. (2012)): CYP1A2 NOT induced ([Gillum et al., 1996]) CYP2B6 NO studies CYP3A4 ([Horita and Doi, 2014]; [Barditch-Crovo et al., 1999])
- Cmax ([6]; human in vivo plasma concentration, normal dose): 440 nM
- Cmax ([6]; human in vivo, normal dose (Table 10)): 440 nM
- CYP induction in vitro (human hepatocytes) (CYP): CYP1A2, CYP3A4
- CYP induction in vivo literature reference: CYP3A4 (CYP3A4 [7]): CYP1A2 NOT induced ([Gillum et al., 1996]) CYP2B6 NO studies CYP3A4 ([Horita and Doi, 2014]; [Barditch-Crovo et al., 1999])
- Induction in vivo (CYP3A4 [7]): Yes
